Experimental data as given in US20250368648A1, “MULTI-CYCLIC IRAK AND FLT3 INHIBITING COMPOUNDS AND USES THEREOF” (CHILDREN'S HOSPITAL MEDICAL CENTER, priority 2022, published 2025).

What was measured:
Format in all cases: biochemical
Details in all cases: HotSpot functional assay, isolated kinase enzyme, 33P-ATP
[1] = target: T1, FLT3 (Homo sapiens, UniProt P36888); experiment: RBC HotSpot Kinase Assay, FLT3; parameters: purchased RBC (Reaction Biology) HotSpot assay
T1 sequence (P36888 27-993): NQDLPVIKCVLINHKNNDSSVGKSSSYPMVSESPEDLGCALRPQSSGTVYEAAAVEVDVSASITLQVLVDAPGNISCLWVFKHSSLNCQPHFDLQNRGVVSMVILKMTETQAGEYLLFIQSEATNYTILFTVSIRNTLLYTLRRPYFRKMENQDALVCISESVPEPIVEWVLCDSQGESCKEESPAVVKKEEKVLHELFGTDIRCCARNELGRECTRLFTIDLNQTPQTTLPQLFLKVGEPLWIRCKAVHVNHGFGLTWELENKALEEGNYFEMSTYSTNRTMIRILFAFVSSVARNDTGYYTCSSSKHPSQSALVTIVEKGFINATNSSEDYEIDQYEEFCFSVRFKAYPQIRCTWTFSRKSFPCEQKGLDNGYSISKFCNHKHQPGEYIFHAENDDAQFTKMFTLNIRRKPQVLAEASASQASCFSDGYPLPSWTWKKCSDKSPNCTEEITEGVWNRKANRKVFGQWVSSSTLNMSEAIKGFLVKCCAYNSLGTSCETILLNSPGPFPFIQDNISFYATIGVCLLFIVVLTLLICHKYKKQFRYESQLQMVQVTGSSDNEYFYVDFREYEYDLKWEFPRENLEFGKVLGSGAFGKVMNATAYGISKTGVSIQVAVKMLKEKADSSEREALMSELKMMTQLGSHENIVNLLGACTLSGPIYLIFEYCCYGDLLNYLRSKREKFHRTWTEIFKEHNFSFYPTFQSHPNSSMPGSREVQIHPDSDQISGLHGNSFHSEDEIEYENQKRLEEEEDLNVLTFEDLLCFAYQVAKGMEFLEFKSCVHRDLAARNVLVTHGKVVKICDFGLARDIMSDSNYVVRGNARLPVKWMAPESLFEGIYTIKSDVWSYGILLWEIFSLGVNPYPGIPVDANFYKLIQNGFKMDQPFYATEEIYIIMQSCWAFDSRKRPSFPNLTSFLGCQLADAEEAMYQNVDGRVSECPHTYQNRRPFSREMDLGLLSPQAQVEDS
Description: (§1) This assay uses the isolated kinase enzyme. This assay is very useful for determining competition of the inhibitor for ATP and/or substrates and for measuring the kinetics of enzyme inhibition. […] Unlike kinase binding assays that measure competition for ATP, the HotSpot Kinase Assay is a functional assay that measures catalytic activity; as such it measures relative functional potency regardless of the mechanism of enzyme inhibition. This assay uses the form of the various enzymes that are easiest to express, which may not necessarily be the form of the enzyme that exist in the cell. (Sometimes the carboxy terminus has been truncated to aid in expression, or, if it is a receptor kinase, the enzyme itself is isolated from the other parts of the receptor that are involved in regulating kinase activity.)
(§2) The reagent used was as follows: Base Reaction buffer; 20 mM Hepes (pH 7.5), 10 mM MgCl2, 1 mM EGTA, 0.01% Brij35, 0.02 mg/mi BSA, 0.1 mM Na3VO4, 2 mM DTT, 1% DMSO. Required cofactors were added individually to each kinase reaction.
(§3) The reaction procedure was as follows: • 1) Substrates were prepared in freshly prepared Reaction Buffer. • 2) Any required cofactors were delivered to the substrate solution above. • 3) Kinase was delivered into the substrate solution and gently mixed. • 4) Compounds were delivered in 100% DMSO into the kinase reaction mixture by Acoustic technology (Echo550, nanoliter range), followed by incubation for 20 min at room temp. • 5) ^33P-ATP was delivered into the reaction mixture to initiate the reaction. • 6) The mixture was incubated for 2 hours at room temperature. • 7) Kinase activity was detected by P81 filter-binding method.

[2] = target: T2, IRAK4 (Homo sapiens, UniProt Q9NWZ3); experiment: RBC HotSpot Kinase Assay, IRAK4; parameters: purchased RBC (Reaction Biology) HotSpot assay
T2 sequence (Q9NWZ3 1-460): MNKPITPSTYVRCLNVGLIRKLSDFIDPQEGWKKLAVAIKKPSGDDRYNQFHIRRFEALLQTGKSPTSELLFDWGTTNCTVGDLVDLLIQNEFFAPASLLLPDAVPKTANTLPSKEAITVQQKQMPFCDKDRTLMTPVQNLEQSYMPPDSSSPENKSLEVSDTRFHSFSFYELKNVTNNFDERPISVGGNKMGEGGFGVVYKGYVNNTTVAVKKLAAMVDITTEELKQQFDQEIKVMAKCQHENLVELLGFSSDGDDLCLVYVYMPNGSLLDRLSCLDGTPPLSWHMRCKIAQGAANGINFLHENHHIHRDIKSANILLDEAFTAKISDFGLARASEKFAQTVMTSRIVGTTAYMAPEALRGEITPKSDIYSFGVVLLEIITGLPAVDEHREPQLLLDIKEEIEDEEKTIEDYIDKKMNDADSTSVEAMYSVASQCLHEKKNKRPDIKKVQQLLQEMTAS
Description: as §1, §2, §3

[3] = target: T3, IRAK1 (Homo sapiens, UniProt P51617); experiment: RBC HotSpot Kinase Assay, IRAK1
T3 construct: purchased RBC (Reaction Biology) HotSpot assay
Description: as §1, §2, §3

T3 sequence (P51617 whole entry): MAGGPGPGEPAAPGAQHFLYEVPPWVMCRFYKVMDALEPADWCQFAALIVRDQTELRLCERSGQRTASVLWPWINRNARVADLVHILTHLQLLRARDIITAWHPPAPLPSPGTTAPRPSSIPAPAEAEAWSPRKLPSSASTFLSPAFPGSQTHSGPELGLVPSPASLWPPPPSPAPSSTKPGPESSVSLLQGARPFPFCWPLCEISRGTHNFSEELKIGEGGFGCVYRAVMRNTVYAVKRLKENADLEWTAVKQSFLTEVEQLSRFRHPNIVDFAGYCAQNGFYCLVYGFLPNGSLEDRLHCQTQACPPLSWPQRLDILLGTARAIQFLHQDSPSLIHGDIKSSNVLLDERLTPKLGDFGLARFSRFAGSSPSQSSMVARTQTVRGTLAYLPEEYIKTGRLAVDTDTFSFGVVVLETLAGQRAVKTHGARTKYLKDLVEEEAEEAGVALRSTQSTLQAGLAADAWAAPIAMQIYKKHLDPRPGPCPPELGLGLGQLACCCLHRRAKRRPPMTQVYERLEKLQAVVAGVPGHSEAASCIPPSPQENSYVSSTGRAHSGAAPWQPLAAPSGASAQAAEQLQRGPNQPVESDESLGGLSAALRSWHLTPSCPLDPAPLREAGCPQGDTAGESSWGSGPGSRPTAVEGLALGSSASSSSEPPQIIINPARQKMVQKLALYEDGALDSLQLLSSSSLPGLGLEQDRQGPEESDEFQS

SMILES	IC50 [1] [nM]	IC50 [2] [nM]	IC50 [3] [nM]
COc1ccc(N[C@H]2CNC[C@@H]2F)nc1-c1cnc2cc(OC)c(C3CC3)nn12 [Compound 36a, 6-(6-cyclopropyl-7-methoxyimidazo[1,2-b]pyridazin-3-yl)-N-((3S,4S)-4-fluoropyrrolidin-3-yl)-5-methoxypyridin-2-amine]	105	341	> 10000
COc1ccc(N[C@H]2CNCC[C@@H]2F)nc1-c1cnc2cc(OC)c(C3CC3)nn12 [Compound 37a, 6-(6-cyclopropyl-7-methoxyimidazo[1,2-b]pyridazin-3-yl)-N-((3S,4S)-4-fluoropiperidin-3-yl)-5-methoxypyridin-2-amine]	40	247	> 10000
COc1cc2ncc(-c3cc(C)cc(N[C@H]4CNCC[C@@H]4F)n3)n2nc1C1CC1 [Compound 52a, 6-(6-cyclopropyl-7-methoxyimidazo[1,2-b]pyridazin-3-yl)-N-((3S,4S)-4-fluoropiperidin-3-yl)-4-methylpyridin-2-amine]	1	1740	> 10000
COc1cc2ncc(-c3cc(-c4ccccc4)cc(N[C@H]4CNCC[C@@H]4F)n3)n2nc1C1CC1 [Compound 53a, 6-(6-cyclopropyl-7-methoxyimidazo[1,2-b]pyridazin-3-yl)-N-((3S,4S)-4-fluoropiperidin-3-yl)-4-phenylpyridin-2-amine]	299	3190	4590
COc1cc2ncc(-c3cc(C4CC4)cc(N[C@H]4CNC[C@@H]4F)n3)n2nc1C1CC1 [Compound 57a, 4-cyclopropyl-6-(6-cyclopropyl-7-methoxyimidazo[1,2-b]pyridazin-3-yl)-N-((3S,4S)-4-fluoropyrrolidin-3-yl)pyridin-2-amine]	19	> 10000	> 10000
COc1cc2ncc(-c3cc(C4CC4)cc(N[C@@H]4CCCNC4)n3)n2nc1C1CC1 [Compound 58a, (R)-4-cyclopropyl-6-(6-cyclopropyl-7-methoxyimidazo[1,2-b]pyridazin-3-yl)-N-(piperidin-3-yl)pyridin-2-amine]	5	> 10000	> 10000
COc1cc2ncc(-c3cc(Oc4ccccc4)cc(N[C@@H]4CCCNC4)n3)n2nc1C1CC1 [Compound 59a, (R)-6-(6-cyclopropyl-7-methoxyimidazo[1,2-b]pyridazin-3-yl)-4-phenoxy-N-(piperidin-3-yl)pyridin-2-amine]	96	> 10000	> 10000
COc1cc2ncc(-c3nc(N[C@H]4CNC[C@@H]4F)c(C)cc3C)n2nc1C1CC1 [Compound 63a, 6-(6-cyclopropyl-7-methoxyimidazo[1,2-b]pyridazin-3-yl)-N-((3S,4S)-4-fluoropyrrolidin-3-yl)-3,5-dimethylpyridin-2-amine]	377	> 10000	> 10000
COc1cc2ncc(-c3nc(N[C@H]4CNC[C@@H]4F)c(F)cc3F)n2nc1C12CC(C1)C2 [Compound 66a, 6-(6-(bicyclo[1.1.1]pentan-1-yl)-7-methoxyimidazo[1,2-b]pyridazin-3-yl)-3,5-difluoro-N-((3S,4S)-4-fluoropyrrolidin-3-yl)pyridin-2-amine]	< 0.5	2	21

Continued, values first:

IC50 [1] [nM]	IC50 [2] [nM]	IC50 [3] [nM]	SMILES
< 0.5	55	> 10000	COc1ccc(-c2cnc3cc(OC)c(C4CC4)nn23)nc1N[C@H]1CNCC[C@@H]1F [Compound 35a, 6-(6-cyclopropyl-7-methoxyimidazo[1,2-b]pyridazin-3-yl)-N-((3S,4S)-4-fluoropiperidin-3-yl)-3-methoxypyridin-2-amine]
2	5240	8270	COc1cc2ncc(-c3cc(C)cc(N[C@H]4CNC[C@@H]4F)n3)n2nc1C1CC1 [Compound 50a, 6-(6-cyclopropyl-7-methoxyimidazo[1,2-b]pyridazin-3-yl)-N-((3S,4S)-4-fluoropyrrolidin-3-yl)-4-methylpyridin-2-amine]
2	4920	> 10000	COc1cc2ncc(-c3cc(C)cc(N[C@@H]4CCCNC4)n3)n2nc1C1CC1 [Compound 51a, (R)-6-(6-cyclopropyl-7-methoxyimidazo[1,2-b]pyridazin-3-yl)-4-methyl-N-(piperidin-3-yl)pyridin-2-amine]
949	6530	9510	COc1cc2ncc(-c3cc(-c4ccccc4)cc(N[C@H]4CNC[C@@H]4F)n3)n2nc1C1CC1 [Compound 54a, 6-(6-cyclopropyl-7-methoxyimidazo[1,2-b]pyridazin-3-yl)-N-((3S,4S)-4-fluoropyrrolidin-3-yl)-4-phenylpyridin-2-amine]
741	4110	4010	COc1cc2ncc(-c3cc(-c4ccccc4)cc(N[C@@H]4CCCNC4)n3)n2nc1C1CC1 [Compound 55a, (R)-6-(6-cyclopropyl-7-methoxyimidazo[1,2-b]pyridazin-3-yl)-4-phenyl-N-(piperidin-3-yl)pyridin-2-amine]
2	9000	> 10000	COc1cc2ncc(-c3cc(C4CC4)cc(N[C@H]4CNCC[C@@H]4F)n3)n2nc1C1CC1 [Compound 56a, 4-cyclopropyl-6-(6-cyclopropyl-7-methoxyimidazo[1,2-b]pyridazin-3-yl)-N-((3S,4S)-4-fluoropiperidin-3-yl)pyridin-2-amine]
277	> 10000	> 10000	COc1cc2ncc(-c3cc(Oc4ccccc4)cc(N[C@H]4CNC[C@@H]4F)n3)n2nc1C1CC1 [Compound 60a, 6-(6-cyclopropyl-7-methoxyimidazo[1,2-b]pyridazin-3-yl)-N-((3S,4S)-4-fluoropyrrolidin-3-yl)-4-phenoxypyridin-2-amine]
94	> 10000	> 10000	COc1cc2ncc(-c3cc(Oc4ccccc4)cc(N[C@H]4CNCC[C@@H]4F)n3)n2nc1C1CC1 [Compound 61a, 6-(6-cyclopropyl-7-methoxyimidazo[1,2-b]pyridazin-3-yl)-N-((3S,4S)-4-fluoropiperidin-3-yl)-4-phenoxypyridin-2-amine]
1420	> 10000	> 10000	COc1cc2ncc(-c3nc(N[C@@H]4CCCNC4)c(C)cc3C)n2nc1C1CC1 [Compound 62a]
821	> 10000	> 10000	COc1cc2ncc(-c3nc(N[C@H]4CNCC[C@@H]4F)c(C)cc3C)n2nc1C1CC1 [Compound 64a, 6-(6-cyclopropyl-7-methoxyimidazo[1,2-b]pyridazin-3-yl)-N-((3S,4S)-4-fluoropiperidin-3-yl)-3,5-dimethylpyridin-2-amine]
